{
  "source": "ChEMBL document CHEMBL5352392",
  "about": "“Design, synthesis, and biological evaluation of novel dual inhibitors of heat shock protein 90/mammalian target of rapamycin (Hsp90/mTOR) against bladder cancer cells” (Eur J Med Chem, 2022)",
  "key": {"[1]": {"target": "Serine/threonine-protein kinase mTOR (Homo sapiens, UniProt P42345)", "assay": "Inhibition of mTOR (unknown origin) at 100 nM by kinase profiling assay relative to control"}, "[2]": {"tested_on": "J82", "assay": "Antiproliferative activity against human J82 cells assessed as inhibition of cell proliferation at 1 uM by CCK8 assay relative to control", "assay_type": "functional"}, "[3]": {"tested_on": "T-24", "assay": "Antiproliferative activity against human T24 cells assessed as inhibition of cell proliferation at 1 uM by CCK8 assay relative to control", "assay_type": "functional"}, "[4]": {"tested_on": "SW780", "assay": "Antiproliferative activity against human SW780 cells assessed as inhibition of cell proliferation at 1 uM by CCK8 assay relative to control", "assay_type": "functional"}, "[5]": {"target": "Heat shock protein HSP90 (Homo sapiens, UniProt P07900+P08238)", "details": "dose 100.0 nM", "description": "Inhibition of Hsp90 (unknown origin) at 100 nM by TR-FRET assay relative to control"}},
  "data": [
    {"compound": "CC(C)c1cc(C(=O)N2CCc3c(sc4nc(NC5CCOCC5)nc(N5CCOCC5)c34)C2)c(O)cc1O", "values": [
      {"measurement": "inhibition", "setting": "[1]", "value": 57.5, "unit": "%"},
      {"measurement": "inhibition at 1 µM", "setting": "[2]", "value": 57.6, "unit": "%"},
      {"measurement": "inhibition at 1 µM", "setting": "[3]", "value": 49.7, "unit": "%"},
      {"measurement": "inhibition at 1 µM", "setting": "[4]", "value": 61, "unit": "%"},
      {"measurement": "inhibition", "setting": "[5]", "value": 58, "unit": "%"}
    ]},
    {"compound": "CC(C)c1cc(C(=O)N2CCc3c(sc4nc(N5CCCCC5)nc(N5CCOCC5)c34)C2)c(O)cc1O", "values": [
      {"measurement": "inhibition", "setting": "[1]", "value": 55.7, "unit": "%"},
      {"measurement": "inhibition at 1 µM", "setting": "[2]", "value": 55, "unit": "%"},
      {"measurement": "inhibition at 1 µM", "setting": "[3]", "value": 43.5, "unit": "%"},
      {"measurement": "inhibition at 1 µM", "setting": "[4]", "value": 49.5, "unit": "%"},
      {"measurement": "inhibition", "setting": "[5]", "value": 46.6, "unit": "%"}
    ]},
    {"compound": "CC(C)c1cc(C(=O)N2CCc3c(sc4nc(N5CCOCC5)nc(N5CCOCC5)c34)C2)c(O)cc1O", "values": [
      {"measurement": "inhibition", "setting": "[1]", "value": 68.8, "unit": "%"},
      {"measurement": "inhibition at 1 µM", "setting": "[2]", "value": 65, "unit": "%"},
      {"measurement": "inhibition at 1 µM", "setting": "[3]", "value": 44.8, "unit": "%"},
      {"measurement": "inhibition at 1 µM", "setting": "[4]", "value": 62.7, "unit": "%"},
      {"measurement": "inhibition", "setting": "[5]", "value": 42.4, "unit": "%"}
    ]},
    {"compound": "CC(C)c1cc(C(=O)N2CCc3c(sc4nc(-c5ccncc5)nc(N5CCOCC5)c34)C2)c(O)cc1O", "values": [
      {"measurement": "inhibition", "setting": "[1]", "value": 49.8, "unit": "%"},
      {"measurement": "inhibition at 1 µM", "setting": "[2]", "value": 37.8, "unit": "%"},
      {"measurement": "inhibition at 1 µM", "setting": "[3]", "value": 47.1, "unit": "%"},
      {"measurement": "inhibition at 1 µM", "setting": "[4]", "value": 39.5, "unit": "%"},
      {"measurement": "inhibition", "setting": "[5]", "value": 35.4, "unit": "%"}
    ]},
    {"compound": "CC(C)c1cc(C(=O)N2CCc3c(sc4nc(N5CCN(C)CC5)nc(N5CCOCC5)c34)C2)c(O)cc1O", "values": [
      {"measurement": "inhibition", "setting": "[1]", "value": 62.6, "unit": "%"},
      {"measurement": "inhibition at 1 µM", "setting": "[2]", "value": 59.2, "unit": "%"},
      {"measurement": "inhibition at 1 µM", "setting": "[3]", "value": 69.9, "unit": "%"},
      {"measurement": "inhibition at 1 µM", "setting": "[4]", "value": 68, "unit": "%"},
      {"measurement": "inhibition", "setting": "[5]", "value": 63.8, "unit": "%"}
    ]},
    {"compound": "CC(C)c1cc(C(=O)N2CCc3c(sc4nc(N5CCOCC5)nc(N5CCN(C)CC5)c34)C2)c(O)cc1O", "values": [
      {"measurement": "inhibition", "setting": "[1]", "value": 32.7, "unit": "%"},
      {"measurement": "inhibition at 1 µM", "setting": "[2]", "value": 37.2, "unit": "%"},
      {"measurement": "inhibition at 1 µM", "setting": "[3]", "value": 40.9, "unit": "%"},
      {"measurement": "inhibition at 1 µM", "setting": "[4]", "value": 44.9, "unit": "%"},
      {"measurement": "inhibition", "setting": "[5]", "value": 40.8, "unit": "%"}
    ]},
    {"compound": "CC(C)c1cc(C(=O)N2CCc3c(sc4nc(-c5ccc(NC(=O)Nc6ccc(Cl)cc6)cc5)nc(N5CCOCC5)c34)C2)c(O)cc1O", "values": [
      {"measurement": "inhibition", "setting": "[1]", "value": 77.3, "unit": "%"},
      {"measurement": "inhibition at 1 µM", "setting": "[2]", "value": 83.9, "unit": "%"},
      {"measurement": "inhibition at 1 µM", "setting": "[3]", "value": 86, "unit": "%"},
      {"measurement": "inhibition at 1 µM", "setting": "[4]", "value": 83.2, "unit": "%"},
      {"measurement": "inhibition", "setting": "[5]", "value": 66.5, "unit": "%"}
    ]},
    {"compound": "CN1CCc2c(sc3nc(-c4ccncc4)nc(N4CCOCC4)c23)C1", "values": [
      {"measurement": "inhibition", "setting": "[1]", "value": 44.3, "unit": "%"},
      {"measurement": "inhibition at 1 µM", "setting": "[2]", "value": 37.6, "unit": "%"},
      {"measurement": "inhibition at 1 µM", "setting": "[3]", "value": 30.5, "unit": "%"},
      {"measurement": "inhibition at 1 µM", "setting": "[4]", "value": 26.3, "unit": "%"}
    ]},
    {"compound": "CC(C)c1cc(C(=O)N2CCc3c(sc4nc(-c5ccc(NC(=O)N6CCOCC6)cc5)nc(N5CCOCC5)c34)C2)c(O)cc1O", "values": [
      {"measurement": "inhibition", "setting": "[1]", "value": 53.7, "unit": "%"},
      {"measurement": "inhibition at 1 µM", "setting": "[2]", "value": 67.2, "unit": "%"},
      {"measurement": "inhibition at 1 µM", "setting": "[3]", "value": 44.8, "unit": "%"},
      {"measurement": "inhibition at 1 µM", "setting": "[4]", "value": 49.8, "unit": "%"},
      {"measurement": "inhibition", "setting": "[5]", "value": 58.4, "unit": "%"}
    ]},
    {"compound": "CC(C)c1cc(C(=O)N2CCc3c(sc4nc(-c5ccc(N)cc5)nc(N5CCOCC5)c34)C2)c(O)cc1O", "values": [
      {"measurement": "inhibition", "setting": "[1]", "value": 67.4, "unit": "%"},
      {"measurement": "inhibition at 1 µM", "setting": "[2]", "value": 64.4, "unit": "%"},
      {"measurement": "inhibition at 1 µM", "setting": "[3]", "value": 70.6, "unit": "%"},
      {"measurement": "inhibition at 1 µM", "setting": "[4]", "value": 66.2, "unit": "%"},
      {"measurement": "inhibition", "setting": "[5]", "value": 57.8, "unit": "%"}
    ]},
    {"compound": "CCNC(=O)N(C(=O)NCC)c1ccc(-c2nc(N3CCOCC3)c3c4c(sc3n2)CN(C(=O)c2cc(C(C)C)c(O)cc2O)CC4)cc1", "values": [
      {"measurement": "inhibition", "setting": "[1]", "value": 53.5, "unit": "%"},
      {"measurement": "inhibition at 1 µM", "setting": "[2]", "value": 53.4, "unit": "%"},
      {"measurement": "inhibition at 1 µM", "setting": "[3]", "value": 61, "unit": "%"},
      {"measurement": "inhibition at 1 µM", "setting": "[4]", "value": 63.2, "unit": "%"},
      {"measurement": "inhibition", "setting": "[5]", "value": 55.7, "unit": "%"}
    ]},
    {"compound": "CC(C)c1cc(C(=O)N2CCc3c(sc4nc(-c5ccc(NC(=O)Nc6ccccc6Cl)cc5)nc(N5CCOCC5)c34)C2)c(O)cc1O", "values": [
      {"measurement": "inhibition", "setting": "[1]", "value": 76.8, "unit": "%"},
      {"measurement": "inhibition at 1 µM", "setting": "[2]", "value": 72.4, "unit": "%"},
      {"measurement": "inhibition at 1 µM", "setting": "[3]", "value": 73.8, "unit": "%"},
      {"measurement": "inhibition at 1 µM", "setting": "[4]", "value": 88.8, "unit": "%"},
      {"measurement": "inhibition", "setting": "[5]", "value": 64.5, "unit": "%"}
    ]},
    {"compound": "Cc1cccc(NC(=O)Nc2ccc(-c3nc(N4CCOCC4)c4c5c(sc4n3)CN(C(=O)c3cc(C(C)C)c(O)cc3O)CC5)cc2)c1", "values": [
      {"measurement": "inhibition", "setting": "[1]", "value": 74.7, "unit": "%"},
      {"measurement": "inhibition at 1 µM", "setting": "[2]", "value": 60.5, "unit": "%"},
      {"measurement": "inhibition at 1 µM", "setting": "[3]", "value": 84.1, "unit": "%"},
      {"measurement": "inhibition at 1 µM", "setting": "[4]", "value": 62.5, "unit": "%"},
      {"measurement": "inhibition", "setting": "[5]", "value": 64.6, "unit": "%"}
    ]},
    {"compound": "CC(C)c1cc(C(=O)N2CCc3c(sc4nc(N5CCOCC5)nc(N5CCCCC5)c34)C2)c(O)cc1O", "values": [
      {"measurement": "inhibition", "setting": "[1]", "value": 56.6, "unit": "%"},
      {"measurement": "inhibition at 1 µM", "setting": "[2]", "value": 55.4, "unit": "%"},
      {"measurement": "inhibition at 1 µM", "setting": "[3]", "value": 57.1, "unit": "%"},
      {"measurement": "inhibition at 1 µM", "setting": "[4]", "value": 47.6, "unit": "%"},
      {"measurement": "inhibition", "setting": "[5]", "value": 54.9, "unit": "%"}
    ]},
    {"compound": "CN1CCc2c(sc3nc(-c4ccc(N)cc4)nc(N4CCOCC4)c23)C1", "values": [
      {"measurement": "inhibition", "setting": "[1]", "value": 66.2, "unit": "%"},
      {"measurement": "inhibition at 1 µM", "setting": "[2]", "value": 50.4, "unit": "%"},
      {"measurement": "inhibition at 1 µM", "setting": "[3]", "value": 32.8, "unit": "%"},
      {"measurement": "inhibition at 1 µM", "setting": "[4]", "value": 20.7, "unit": "%"}
    ]},
    {"compound": "CC(C)c1cc(C(=O)N2CCc3c(sc4nc(-c5ccc(NC(=O)Nc6cccc(F)c6)cc5)nc(N5CCOCC5)c34)C2)c(O)cc1O", "values": [
      {"measurement": "inhibition", "setting": "[1]", "value": 47.7, "unit": "%"},
      {"measurement": "inhibition at 1 µM", "setting": "[2]", "value": 58.8, "unit": "%"},
      {"measurement": "inhibition at 1 µM", "setting": "[3]", "value": 63.8, "unit": "%"},
      {"measurement": "inhibition at 1 µM", "setting": "[4]", "value": 59.9, "unit": "%"},
      {"measurement": "inhibition", "setting": "[5]", "value": 64.9, "unit": "%"}
    ]}
  ]
}
